The text below walks through data of patent US20040096855A1, “Genes” (priority 2001, published 2004).

For one assay, the system named is A2058. To be noted: A2058, melanoma; B-Raf V599E. An excerpt: (§1) The second approach is to examine the effects of the compound U0126, an inhibitor of MEK1/2, the only known substrates for B-Raf.
In another assay the test system is CHL. As to conditions: melanoma, B-Raf wt.
Excerpt: as §1

A further assay concerns Mawi. As to conditions: colorectal, Ras wt, B-Raf V599E.
Excerpt: as §1

Another assay deals with NCI-H2087. To be noted: NCI-H2087, NSCLC cell line pair; Ras onc; B-Raf L596V.
Excerpt: as §1

For another assay, the system named is SK-MEL-28. To be noted: SK-MEL-28, melanoma; Ras b; B-Raf V599E.
Excerpt: as §1

In a further assay the test system is SW620. To be noted: SW620, colorectal; Ras onc; B-Raf wt.
Excerpt: as §1

Another assay deals with WM-266-4/WM-115. To be noted: WM-266-4/WM-115, melanoma; Ras b; B-Raf V599D.
Excerpt: as §1

A further assay deals with colo741. To be noted: colo741, colorectal; B-Raf V599E.
Excerpt: as §1

Assay [1] has as its system ERK activity in WM266.4 cells. Nature of the assay: Active ERK levels by Western blot with ppERK antibody. It is filed as cell-based, human. To be noted: 10 μM compound. The method, then:
WM266.4 or A375P cells were treated with 10 μM U0126, 10 μM BAY 43-9006 or DMSO as a control. Equivalent amounts of cellular proteins were resolved on SDS-gels and the levels of active ERK were determined using the ppERK antibody.
FIG. 6. Ablation of BRAF, but not CRAF blocks ERK activity in melanoma cells. WM-266.4 or Colo 829 cells were treated with a BRAF specific siRNA probe (BRAF), or the scrambled control (sBRAF), or a CRAF specific probe (CRAF), or its scrambled control (sCRAF), or oligofectamine (oligo) or left untreated (control) as indicated. The cells were incubated for the times indicated, and the Colo 829 cells were treated for 24hours. The levels of ERK activity in equivalent amounts of cell extract was determined by Western blotting with the ppERK antibody.
In order to validate BRAF as a target in cancer, it is first tested whether the growth of cells that express activated, mutant forms of BRAF required the RAF-MEK-ERK signaling pathway for growth. To this end, melanoma and colorectal cell lines that harbour mutations in the BRAF gene are treated with pharmacological agents that block signaling through this pathway. Two compounds are tested. One is the compound U0126, which is a MEK inhibitor and which therefore uncouples RAF-ERK signaling in cells (Sebolt-Leopold et al., 1999). BAY 43-9006 os also tested. This is an inhibitor of RAF proteins (Lyons et al., 2001). […]

Assay [2] relates to WM-266.4 cells. Nature of the assay: DNA synthesis, [3H]-thymidine incorporation. Type of assay: cell-based, human. To be noted: 10 μM, 48 hours. The method, then:
FIG. 4. Inhibition of cell growth by pharmacological agents. WM-266.4 cells were incubated in the presence of U0126 (10 μM) or BAY 43-9006 (10 μM) or the vehicle control (DMSO). After 48 hours, DNA synthesis was determined by incubating the cells with [^3H]-thymidine and the levels of thymidine incorporated into the cellular DNA was determined.
(§2) Colo 829 cells are a melanoma cell line that harbours a V599E mutation in the BRAF gene and BE cells are a colorectal line that harbour a G463 mutation in the BRAF gene (Davies et al., 2002). As we have shown, both of these mutations are activating (Davies et al., 2002). Finally, we tested the effects of these inhibitors on DNA synthesis.

Assay [3] concerns WM-266.4 cells. Nature of the assay: Cell cycle analysis by FACS (propridium iodide). Type of assay: cell-based, human. As to conditions: 96 hours. The method, then: FIG. 7. Ablation of BRAF, but not CRAF induces apoptosis in melanoma cells. WM-266.4 cells were treated with a BRAF specific siRNA probe (BRAF), or the scrambled control (sBRAF), or a CRAF specific siRNA probe (CRAF), or U0126, or […] (oligo) or left untreated (control) as indicated. The cells were incubated for 96 hours and the cell cycle profile was analysed by FACS, or PARP expression was examined by Western blotting.
Finally, we examined how BRAF ablation affected cell growth, examining the effects on apoptosis in WM-266.4 cells. For these studies, the cells were fixed in 70% ethanol, stained with propridium iodide and their cell cycle profiles were examined by fluorescent activated cell sorting (FACS). Using this analysis, the apoptotic cells appear in the sub-G1 peak. In these cells, spontaneous apoptosis is very low, with less than 1% of the cell appearing in the sub-G1 peak (FIG. 7, table 5). […] We also examined PARP cleavage, a marker of the induction of apoptosis.
WM-266.4 cells were treated with U0126, DMSO, siRNA to BRAF, siRNA to CRAF or the scrambled siRNA control. The cells were incubated for 96 hours and the cells were fixed and stained with propridium iodide for cell cycle analysis by FACS. The proportion of cells in each phase of the cell cycle is shown.

Another assay deals with ERK (CHL cells). To be noted: melanoma, B-Raf wt.
The next assay deals with ERK (colo741 cells). To be noted: colo741, colorectal; B-Raf V599E.
For a further assay, the system named is ERK (SK-MEL-28 cells). As to conditions: SK-MEL-28, melanoma; Ras b; B-Raf V599E.
For assay [4], the system named is ERK (WM-266-4/WM-115 cells). To be noted: WM-266-4/WM-115, melanoma; Ras b; B-Raf V599D.
In a further assay the test system is ERK (A2058 cells). To be noted: A2058, melanoma; B-Raf V599E.
The next assay deals with ERK (NCI-H2087 cells). To be noted: NCI-H2087, NSCLC cell line pair; Ras onc; B-Raf L596V.
For another assay, the system named is ERK (Mawi cells). As to conditions: colorectal, Ras wt, B-Raf V599E.
The next assay addresses cellular Ras. Nature of the assay: cell-based or functional assay.
A further assay has as its system WM266.4. Nature of the assay: Inhibition of cell growth, sulphorhodamine B staining. Type of assay: cell-based, human. To be noted: WM266.4 melanoma cells (BRAF V599D).
The subject of the next assay is BE. The assay is described as above. Type of assay: cell-based, human. As to conditions: BE colorectal cells (BRAF G463 mutation). The method, then:
as §2
(§3) Cell lines were incubated in the presence of increasing levels of BAY 43-9006 and the levels of cell growth were determined by sulphorhodamine B staining. The IC50 values were determined by non-linear regression analysis and are indicated.

A further assay concerns Colo 829. Described as above. Type of assay: cell-based, human. As to conditions: Colo 829 melanoma cells (BRAF V599E). The method, then:
as §2, §3

For the compound `N#CC(=C(/N)Sc1ccccc1N)/C(C#N)=C(\N)Sc1ccccc1N` [U0126], the “U0 inhibit S” value was 68% with A2058; 51% in the assay on CHL; 80% with Mawi; 56% in the assay with NCI-H2087; 98% with SK-MEL-28; 92% in the assay on SW620. Besides, the “U0 inhibit S” value in the assay with WM-266-4/WM-115 is over 99%; with colo741, 76%. In addition, the “ERK activity (ppERK Western blot)” value in assay [1] was “strongly suppressed”. In addition, the “DNA synthesis ([3H]-thymidine incorporation)” value in the assay on WM-266.4 cells [2] is listed as “strongly suppressed”. Further, in the assay with WM-266.4 cells [3], the “Proportion of events, G1” value amounted to 87.5%. For the same compound, in the assay on WM-266.4 cells [3], the “Proportion of events, G2/M” value was found to be 7.8%. In addition, in the assay with WM-266.4 cells [3], the “Proportion of events, S” value is on record as 1.3%. Moreover, the “Proportion of events, Sub-G1” value in the assay on WM-266.4 cells [3] (sub-G1 = apoptotic cells) is recorded as about 3.5%. Also, the UO/ERK-inhib in the assay on ERK (CHL cells) is reported as over 90%; with ERK (colo741 cells) it was 90%; in the assay on ERK (SK-MEL-28 cells) it was over 90%; in [4] it was over 90%; with ERK (A2058 cells) it was 80%; in the assay on ERK (NCI-H2087 cells), over 90%. The UO/ERK-inhib in the assay with ERK (Mawi cells) is over 90%.
As for monoclonal antibody Y13-259, in the assay with cellular Ras, the inhibition of growth (percentage of cells that do not incorporate BrdU) after micro-injection of Y13-259; A2058, melanoma, Ras not given, B-Raf V599E came out at 0%; the inhibition of growth (percentage of cells that do not incorporate BrdU) after micro-injection of Y13-259; CaCO2, colorectal, Ras wt, B-Raf wt is 60%; the inhibition of growth (percentage of cells that do not incorporate BrdU) after micro-injection of Y13-259; DLD1, colorectal, Ras K13Asp/wt, B-Raf wt is 40%; the inhibition of growth (percentage of cells that do not incorporate BrdU) after micro-injection of Y13-259; HCT-116, colorectal, Ras K13 Asp, B-Raf wt amounted to 95%. In the assay with cellular Ras, the inhibition of growth (percentage of cells that do not incorporate BrdU) after micro-injection of Y13-259; HMV11-Riken, melanoma, Ras not given, B-Raf wt was found to be 100%; the inhibition of growth (percentage of cells that do not incorporate BrdU) after micro-injection of Y13-259; HT29, colorectal, Ras wt, B-Raf V599E came out at 15%; the inhibition of growth (percentage of cells that do not incorporate BrdU) after micro-injection of Y13-259; JW2, colorectal, Ras K12, B-Raf wt worked out at 79%; the inhibition of growth (percentage of cells that do not incorporate BrdU) after micro-injection of Y13-259; LS174T, colorectal, Ras K12Asp/wt, B-Raf wt stood at 84%. In the assay with cellular Ras, this compound came in with an inhibition of growth (percentage of cells that do not incorporate BrdU) after micro-injection of Y13-259; LS411N, colorectal, Ras not given, B-Raf V599E (first value) of 0%; an inhibition of growth (percentage of cells that do not incorporate BrdU) after micro-injection of Y13-259; LS411N, colorectal, Ras not given, B-Raf V599E (second value) of 0%; an inhibition of growth (percentage of cells that do not incorporate BrdU) after micro-injection of Y13-259; Malme, melanoma, Ras not given, B-Raf V599E of 0%; an inhibition of growth (percentage of cells that do not incorporate BrdU) after micro-injection of Y13-259; Mawi, colorectal, Ras wt, B-Raf V599E of 5%. Besides, in the assay with cellular Ras, the inhibition of growth (percentage of cells that do not incorporate BrdU) after micro-injection of Y13-259; NCI-H2087, NSCLC cell line pair, Ras onc, B-Raf L596V came to 77%; the inhibition of growth (percentage of cells that do not incorporate BrdU) after micro-injection of Y13-259; SK-MEL-28, melanoma, Ras 'b', B-Raf V599E was 4%; the inhibition of growth (percentage of cells that do not incorporate BrdU) after micro-injection of Y13-259; SK-Mel2, melanoma, Ras not given, B-Raf wt was 70%; the inhibition of growth (percentage of cells that do not incorporate BrdU) after micro-injection of Y13-259; SW480, colorectal, Ras K12, B-Raf wt worked out at 57%. In the assay with cellular Ras, this compound gave an inhibition of growth (percentage of cells that do not incorporate BrdU) after micro-injection of Y13-259; SW620, colorectal, Ras onc, B-Raf wt of 92%; an inhibition of growth (percentage of cells that do not incorporate BrdU) after micro-injection of Y13-259; WM-266-4/WM-115, melanoma, Ras 'b', B-Raf V599D of 10%; an inhibition of growth (percentage of cells that do not incorporate BrdU) after micro-injection of Y13-259; colo205, colorectal, Ras wt, B-Raf V599E of 3%; an inhibition of growth (percentage of cells that do not incorporate BrdU) after micro-injection of Y13-259; colo741, colorectal, Ras not given, B-Raf V599E of 0%.
As to `CNC(=O)c1cc(Oc2ccc(NC(=O)Nc3ccc(Cl)c(C(F)(F)F)c3)cc2)ccn1` [BAY 43-9006], the half-maximal inhibitory concentration (IC50) is 6.1 µM in the assay on WM266.4, about 6.1 µM in the assay on WM266.4 (listed as BAY 43-9002), 5.4 µM with BE and 5.1 µM in the assay with Colo 829. Besides, the “IC50, inhibition of cell growth” value with BE and with Colo 829 was “low micro-molar range” throughout. Besides, in assay [1], the “ERK activity (ppERK Western blot)” value is listed as “strongly suppressed”. Also, the “DNA synthesis ([3H]-thymidine incorporation)” value in the assay with WM-266.4 cells [2] is “strongly suppressed”.
